# Test results published in publication PMC12903857.
# Tests used:
# Assay type in all cases: binding
# [1] = molecular target: T1, 14-3-3σ/C-RAF259 (Homo sapiens, UniProt P31947); assay: Intact mass spectrometry assay with C-RAF259 phospho-peptide; set-up: full-length for mass spectrometry and fluorescence anisotropy assays; made in house; host or cells: E. coli Rosetta 2(DE3)pLysS (14-3-3σ); peptides from Elim Biopharmaceuticals; conditions: 1 μM compound, 100 nM 14-3-3σ, 18 µM peptide
# Method: (§1) In analogy to our previous work, two orthogonal assays were used for screening (Figure S2). […] Dose responses of compounds were performed in the absence and presence of the C-RAF259 phospho-peptide to distinguish between neutral binders and cooperative molecular glues. The experiment was performed as a time course, with measurements every 8 h, after an 1 h incubation. Additionally, the compounds were tested in a fluorescence anisotropy (FA) assay in the presence of the 5-carboxyfluorescein-(FAM)-labeled C-RAF259 peptide. […] The full dose–response data for all compounds are available in the SI (Tables S2–S5, Figures S5–S8, Figures S15–S18, Figures S25–S32, Figures S37–S39). The dose–response data from both assays were also visually compared in the form of bar graphs. […] For FA experiments, the EC50 values from the overnight measurement were calculated and plotted as bar graphs showing the […] log EC50 value (pEC50). Compounds acting as MGs were expected to show increases in both types of bar graphs.
# (§2) transferred in the assay plates.
# (§3) The reacton mixtures were incubated
# (§4) dispensed in the assay plates.
# (§5) incubaton at room temperature .
# [2] = molecular target: T2, 14-3-3σ (Homo sapiens, UniProt P31947); assay: Intact mass spectrometry assay, apo (no peptide); set-up: full-length for mass spectrometry and fluorescence anisotropy assays; made in house; host or cells: E. coli Rosetta 2(DE3)pLysS, pPROEX HTb vector; conditions: 1 μM compound, 100 nM 14-3-3σ
# T2 sequence (P31947 1-248): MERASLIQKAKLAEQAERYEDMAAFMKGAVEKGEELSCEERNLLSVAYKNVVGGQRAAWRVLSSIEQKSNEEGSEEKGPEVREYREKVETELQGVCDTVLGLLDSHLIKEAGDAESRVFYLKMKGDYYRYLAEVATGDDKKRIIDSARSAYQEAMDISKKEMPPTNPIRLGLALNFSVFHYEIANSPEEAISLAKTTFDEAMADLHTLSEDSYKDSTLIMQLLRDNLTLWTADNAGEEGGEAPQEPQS
# Method: as §1, §2, §3, §4, §5
# [3] = molecular target: T1, 14-3-3σ/C-RAF259; assay: Fluorescence anisotropy (FA) compound titration; conditions: 10 nM C-RAF259-FAM 10-mer, 5 μΜ 14-3-3σ, overnight; for EC50: read-out: Compound titrations EC50 value C-RAF259
# Method: as §1, §2, §3, §4, §5
Compound,"% bound, C-RAF259 (11mer), 1h [1] [%]","% bound, C-RAF259 (11mer), 8h [1] [%]","% bound, C-RAF259 (11mer), 16h [1] [%]","% bound, C-RAF259 (11mer), 24h [1] [%]","% bound, APO, 1h [2] [%]","% bound, APO, 8h [2] [%]","% bound, APO, 16h [2] [%]","% bound, APO, 24h [2] [%]",EC50 [3] [µM],Compound titrations EC50 value C-RAF259 [3]
O=C(CCl)NCCCC1CCN(S(=O)(=O)c2ccc(Cl)cc2)CC1 [Compound 13],0.9,2.9,5.6,14.1,0,1.5,2.5,4.3,> 1000,
O=C(CCl)NCC1CCN(S(=O)(=O)c2cccc(C(F)(F)F)c2)CC1 [Compound 17],1.9,3.4,6.5,12.3,0,0,0.5,0.9,> 150,
O=C(CCl)NCC1CCN(S(=O)(=O)Cc2ccccc2)CC1 [Compound 6],0.9,2.9,6.5,7,0,1,4.7,4.7,> 1000,
O=C(CCl)NCC1CCN(S(=O)(=O)c2ccc(C(F)(F)F)c(F)c2)CC1 [Compound 32],,,,,,,,,4 ± 1,
O=C(CCl)N1CC[C@]2(CCN(S(=O)(=O)c3ccc(Br)c(F)c3)C2)C1 [Compound 89],43,65.8,82,,5.6,14.5,36.2,53.9,> 250,
O=C(CCl)NCC1CCN(S(=O)(=O)c2ccccc2)CC1 [Compound 10],4.7,5.6,5.7,13,4.7,4.7,4.7,4.7,66 ± 4,
O=C(CCl)NCC1CCN(S(=O)(=O)C2CC3(C2)CC(F)(F)C3)CC1 [Compound 35],0,0,0,3.8,0,0,0,0.5,> 1000,
O=C(C(Cl)Cl)N1CC2(CCN(S(=O)(=O)c3ccc(Br)c(F)c3)CC2(F)F)C1 [Compound 74],0,0,0,4.7,0,0,0,0,> 1000,completely inactive
O=C(CCl)N1CC2(CCN(S(=O)(=O)c3ccc(Br)c(F)c3)CC2(F)F)C1 [Compound 52],25,45.1,64.3,80.2,2.9,11.3,18.5,28.6,94 ± 9,
O=C(CCl)NCC1CCN(S(=O)(=O)c2ccc(F)c(F)c2)CC1 [Compound 28],4.3,15.2,27.5,40,1.9,4.7,6.5,9.1,88 ± 2,
O=C(CCl)NCC1CCN(S(=O)(=O)Cc2ccc(F)cc2)CC1 [Compound 7],1.5,1.5,2.5,4.7,1,1.9,1.9,2.9,> 1000,
O=C(CCl)N1CC2(CCN(S(=O)(=O)c3ccc(Br)c(F)c3)CC2)C1 [Compound 49],11.1,32.4,53.8,86.6,1.9,5.2,13.8,15.9,47 ± 4,
C=C(F)C(=O)N1CC2(CCN(S(=O)(=O)c3ccc(Br)c(F)c3)CC2(F)F)C1 [Compound 75],0,0,0,2.9,0,0,0,0,> 1000,completely inactive
O=C(CCl)N1CC2CCC1CC2NS(=O)(=O)c1ccc(Br)c(F)c1 (centres unmarked) [Compound 61],37.1,68,80.9,83.3,5.2,13.3,21.8,36.8,78 ± 7,
O=C(CCl)NCC1CCN(S(=O)(=O)c2cccc(F)c2)CC1 [Compound 16],3.3,8.2,18,32.4,0,1,1.9,2.9,> 150,
O=C(CCl)NCC1CCN(S(=O)(=O)c2ccc(Br)c(F)c2)CC1 [Compound 37],,,,,,,,,5 ± 1,
O=C(CCl)N1CC2(C1)CN(S(=O)(=O)c1ccc(C(F)(F)F)c(F)c1)CCO2 [Compound 80],,,,,,,,,9 ± 2,
O=C(CCl)N1CC2(CCCN(S(=O)(=O)c3ccc(Br)c(F)c3)C2)C1 [Compound 83],,,,,,,,,5 ± 2,
